From US5496834A, “Lactol derivatives, their production and use” (Takeda Chemical Industries, Ltd., priority 1993, dated 1996)
Numbered stars: 1 amine (or outer) side, 2 acyl side, 3 side chain; on linkers, the order of the positions; unused ones are H or OH. Peptide text beside a SMILES is read from it. CO = O=C([*:1])[*:2]

tested on: cathepsin L; assay: not given; conditions: reported as one of their inhibition activities; cited from earlier work

| Structure (SMILES) | cathepsin L inhibitory activity |
| --- | --- |
| CC(C)[C@H](NC(=O)[C@H](CCCNC(=N)N)NC(=O)N[C@@H](Cc1ccccc1)C(=O)O)C(=O)N[C@H](C=O)CCCNC(=N)N [antipain] ({Phe-CO}-Arg-Val-Arg-aldehyde) | cathepsin L inhibitory activity |
| CC(=O)N[C@@H](CC(C)C)C(=O)N[C@@H](CC(C)C)C(=O)N[C@H](C=O)CCCNC(=N)N [leupeptin] | cathepsin L inhibitory activity |

tested on: bone (antebrachial bones: radii, cubiti); assay: bone resorption inhibitory action (45Ca release from cultured fetal rat bones); type: cell-based, Sprague-Dawley rat; conditions: 48 h, concentration 10 μM, 2 days culture, mean of 5 bone pieces, lower = stronger inhibition, p<0.05, p<0.01, ***, p<0.001 vs. control, read-out: Bone resorption Inhibitory Activity [45Ca release (Percent to control)]
Procedure: Bone resorption inhibitory activity was assayed by the method of Raisz [J. Clin. Invest. 44, 103-116 (1965) which is incorporated herein by reference]. Thus, a Sprague-Dawley rat on day 18 of gestation was subcutaneously dosed with 50 μCi of ^45 Ca (an isotope of calcium, dissolved in CaCl2). The following day, the abdomen was opened and the fetuses were aseptically extracted. Under the dissecting microscope, the bilateral antebrachial bones (radii, cubiti) were separated from the carcass and the connective tissues and cartilages were removed as far as possible to prepare bone culture specimens. Each of these bone specimens was put in 0.6 ml of BGJb medium (Fitton-Jackson modification; GIBCO Laboratories, USA) supplemented with bovine serum albumin (final concentration 2 mg/ml) and incubated at 37° C. for 24 hours. This bone was further cultured in the same medium containing the test compound (final concentration 10 μM or 30 μM) for 2 days. The percent ratio (%) of ^45 Ca released from the bone to the medium was calculated from the radioactivity count in the medium and that in the bone by means of the following equation. [formula]
As a control group, the bones from a fetus of the same litter were similarly cultured for 2 days. The mean ± standard deviation was calculated for 5 bone pieces per group and the percentage (%) of this value relative to the value of the control group was calculated.

| Structure (SMILES) | activity at 10 µM [%] |
| --- | --- |
| CCCC(CCC)C(=O)N[C@H](C(=O)N[C@H]1CCOC1O)C(C)C (stereo partly drawn) [Example 12] | 64 |
| CC(C)C[C@H](NC(=O)OCc1ccccc1)C(=O)N[C@H]1CCOC1O (stereo partly drawn) [Example 15] | 26 |
| CC(C)C[C@H](NC(=O)OCc1ccccc1)C(=O)N[C@@H](CC(C)C)C(=O)N[C@H]1CCOC1O (stereo partly drawn) [Example 16] | 77 |
| CC(C)C[C@H](NC(=S)Nc1cccc2ccccc12)C(=O)N[C@H]1CCOC1O (stereo partly drawn) [Example 21] | 67 |
| CC(=O)OC1OCC[C@@H]1NC(=O)[C@@H](NC(=O)OCc1ccccc1)C(C)C (stereo partly drawn) [Example 25, (3S)-2-acetoxy-3-[[N-benzyloxycarbonyl-(L)-valyl]amino]tetrahydrofuran] | 75 |
| CC(C)C[C@H](NS(=O)(=O)c1cccc2ccccc12)C(=O)N[C@H]1CCCOC1O (stereo partly drawn) [Example 35, (3S)-2-hydroxy-3-[[N-(1-naphthalenesulfonyl)-(L)-leucyl]amino]tetrahydropyran] | 82 |
| CCCC(CCC)C(=O)N[C@H](C(=O)N[C@H]1CCO[C@@H]1OC)C(C)C [Example 73, (2S,3S)-2-methoxy-3-[[N-valproyl-(L)-valyl]amino]tetrahydrofuran] | 79 |
| COC(=O)C[C@H](NC(=O)OCc1ccccc1)C(=O)N[C@H]1CCOC1OC (stereo partly drawn) [Example 74, (3S)-3-[[N-benzyloxycarbonyl-(L)-(3-methoxycarbonyl)alanyl]amino] -2-methoxytetrahydrofuran] | 78 |

same assay, conditions: 48 h, concentration 30 μM, 2 days culture, mean of 5 bone pieces, lower = stronger inhibition, p<0.05, p<0.01 vs. control, read-out: Bone resorption Inhibitory Activity [45Ca release (Percent to control)]

| Structure (SMILES) | activity at 30 µM [%] |
| --- | --- |
| CC(=O)O[C@@H]1OCC[C@@H]1NC(=O)[C@H](CC(C)C)NC(=O)Nc1cccc2ccccc12 [Example 29, (2S,3S)-2-acetoxy-3-[[N-(1-naphthylcarbamoyl)-(L)-leucyl]amino]-tetrahydrofuran] | 67 |
| CC(C)C[C@H](NC(=O)Nc1cccc2ccccc12)C(=O)NC1CCOC1O (stereo partly drawn) [Example 32, 2-hydroxy-3-[[N-(1-naphthylcarbamoyl)-(L)-leucyl]amino]tetrahydrofuran] | 77 |

tested on: mice; assay: oral toxicity in mice; type: in vivo; conditions: 500 mg/kg
Source text: Moreover, its toxic potential is low. […] Therefore, the compound (Ia) or (Ib) of this invention can be used in the prophylaxis and therapy of osteoporosis in mammalian animals (e.g. mouse, rat, rabbit, dog, cat, cattle, swine and man).

| Structure (SMILES) | deaths after oral administration |
| --- | --- |
| CCCC(CCC)C(=O)N[C@H](C(=O)N[C@H]1CCO[C@H]1OC(C)=O)C(C)C [Example 60] | killed no test animals |

biological target: T1, human cathepsin L (Homo sapiens, UniProt P07711); assay: human cathepsin L inhibitory action; type: biochemical; conditions: recombinant human cathepsin L, substrate Z-Phe-Arg-NMec, pH 5.5, 30° C., 10 minutes
T1 construct: made in house
T1 sequence (P07711 114-333): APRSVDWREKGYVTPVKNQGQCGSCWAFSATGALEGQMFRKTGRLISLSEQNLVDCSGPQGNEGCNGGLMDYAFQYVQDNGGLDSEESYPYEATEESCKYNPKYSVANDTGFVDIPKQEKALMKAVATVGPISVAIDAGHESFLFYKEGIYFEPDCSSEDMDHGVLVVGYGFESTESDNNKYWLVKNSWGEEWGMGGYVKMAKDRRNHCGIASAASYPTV
Procedure: The recombinant human cathepsin L obtained by the procedure described in Example 8 of the specification of EPC 931098792 (European Publication No. 0576953 A2) (which is incorporated herein by reference) was diluted to 1 μg/ml with a diluent (0.1% Brij35, Sigma). This diluted enzyme solution was admixed with 46 μl of said diluent, 2 μl of 0.1M DTT and 25 μl of an activator/buffer (340 mM sodium acetate, 60 mM acetic acid, 4 mM EDTA disodium, pH 5.5). Then, 1 μl of a solution of the test compound in dimethyl sulfoxide (DMSO) (10 ^-2 M) and 25 μl of 20 μM Z-phe-Arg-NMec (substrate solution) were added. The mixture was incubated at 30° C. for 10 minutes, after which 100 μl of a reaction stopper (100 mM sodium monochloroacetate, 30 mM sodium acetate, pH 4.3) was added. This reaction was carried out on a 96-well Fluoroplate (Labosystems).
After termination of the reaction, the intensity of fluorescence of liberated aminomethylcoumarin at 450 nm was measured at an excitation wavelength of 365 nm. As a blank experiment, 1 μl of DMSO not containing the test compound was added and the intensity of fluorescence after the reaction was taken as 100% activity. For a sample showing a residual activity of 10% or less, a further diluted solution was used to determine the residual activity by the same procedure as above. Then, IC50 values were calculated.

| Structure (SMILES) | IC50 [µM] |
| --- | --- |
| CC(C)(C)OC(=O)N[C@@H](Cc1ccccc1)C(=O)N[C@H]1CCOC1O (stereo partly drawn) [Example 1, (3S)-3-[[N-tert-butoxycarbonyl-(L)-phenylalanyl]amino]-2-hydroxytetrahydrofuran] | 0.03 |
| CC[C@H](C)[C@H](NS(=O)(=O)c1cccc2ccccc12)C(=O)N[C@H]1CCOC1O (stereo partly drawn) [Example 4] | 0.057 |
| O=C(N[C@@H](Cc1ccccc1)C(=O)N[C@H]1CCOC1O)OCc1ccccc1 (stereo partly drawn) [Example 5] | 0.008 |
| CC(C)[C@H](NC(=O)OCc1ccccc1)C(=O)N[C@H]1CCOC1O (stereo partly drawn) [Example 6] | 0.03 |
| CCCC(CCC)C(=O)N[C@H](C(=O)N[C@H]1CCOC1O)C(C)C (stereo partly drawn) [Example 12] | 0.032 |
| O=C(COc1ccccc1)N[C@@H](Cc1ccccc1)C(=O)N[C@H]1CCOC1O (stereo partly drawn) [Example 14] | 0.0094 |
| CC(C)C[C@H](NC(=O)Nc1cccc2ccccc12)C(=O)N[C@H]1CCOC1O (stereo partly drawn) [Example 17] | 0.0069 |
| O=C(N[C@@H](Cc1ccccc1)C(=O)N[C@H]1CCCOC1O)OCc1ccccc1 (stereo partly drawn) [Example 23] | 0.028 |
| CC(=O)OC1OCC[C@@H]1NC(=O)[C@@H](NC(=O)OCc1ccccc1)C(C)C (stereo partly drawn) [Example 25, (3S)-2-acetoxy-3-[[N-benzyloxycarbonyl-(L)-valyl]amino]tetrahydrofuran] | 0.45 |
| CC(C)C[C@H](NC(=O)OCc1ccccc1)C(=O)N[C@@H](CC(C)C)C(=O)N[C@H]1CCCOC1O (stereo partly drawn) [Example 38] | 0.052 |
| CCOP(=O)(Cc1ccc(C(=O)N[C@@H](CC(C)C)C(=O)N[C@H]2CCOC2O)cc1)OCC (stereo partly drawn) [Example 42] | 0.029 |
| CC(=O)O[C@@H]1OCC[C@@H]1NC(=O)[C@H](CC(C)C)NC(=O)c1cccnc1 [Example 62] | 0.87 |
| CC(=O)O[C@@H]1OCC[C@@H]1NC(=O)[C@H](CC(C)C)NC(=O)c1ccccn1 [Example 64] | 0.69 |
| COC1OCC[C@@H]1NC(=O)[C@H](CC(C)C)NC(=O)Nc1cccc2ccccc12 (stereo partly drawn) [Example 89, (3S)-2-methoxy-3-[[N-(1-naphthylcarbamoyl)-(L)-leucyl]amino]-tetrahydrofuran] | 0.19 |
